# Assay results as given in patent US20250214991A1 (Oncopia Therapeutics, Inc. d/b/a/ SK Life Science Labs, priority 2022, published 2025).
# How the values were obtained:
# [1] = target: T1, IKZF2 (Homo sapiens (Human), UniProt Q96SW2+Q9UKS7); assay: In vitro IKZF2 FACS Assay in Jurkat cells; assay type: cell-based; conditions: 24 hrs; for DC50: half maximal degradation concentration; for Dmax: maximal degradation percentage
# Procedure: In vitro IKZF2 FACS Assay
# DC50, A: <1 nM; B: 1-10 nM; C: 10-100 nM; D: 100-1000 nM; E: >1000 nM. Dmax, A: >80%; B: 60-80%; C: 40-60%; D: 20-40%; E: <20%.
# [2] = target: CRBN/DDB1 (Homo sapiens (Human), UniProt Q96SW2); assay: IC50 measurements for binding to CRBN/DDB1 (HTRF); conditions: His tagged CRBN+DDB, Cy5-labeled Thalidomide probe, one hour
# Outline: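 Serially diluted compounds compete with a Cy5-labeled thalidomide tracer (60 nM) for His-tagged CRBN-DDB1 (2 nM), detected via anti-6His Tb cryptate (0.4 nM); buffer HEPES pH 7.5 with TCEP, Brij-35, NaCl, BSA. One-hour room-temperature incubation, HTRF signal read, IC50 by four-parameter curve.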
# [3] = target: T1, IKZF2; assay: In vitro IKZF2 HiBit Assay (HEK293T Flp-in-HiBiT cells); assay type: cell-based; conditions: HEK293T Flp-in-HiBiT cells, 6 hrs incubation; for DC50: read-out: IKZF2 HiBit DC50; for Dmax: HEK-293T, read-out: IKZF2 HiBit Dmax (%)
# Outline: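 Remaining tagged Helios was read as lytic HiBiT/LgBiT luminescence normalized to DMSO, yielding binned DC50 and Dmax values. Treatment ran 6 h, with compounds at 11 three-fold doses diluted from 1 mM and 0.1% final DMSO. The cells were HEK293T Flp-in with CRISPR knock-in of HiBiT at the IKZF2 N-terminus.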
# [4] = target: IKZF1 (Homo sapiens (Human), UniProt Q13422+Q96SW2); assay: In vitro IKZF1 HiBit Assay (HEK293T Flp-in-HiBiT-IKZF1 stable cell line); assay type: cell-based; conditions: HEK293T Flp-in-HiBiT-IKZF1 stable cell line, 6 hrs incubation; for DC50: read-out: IKZF1 HiBit DC50; for Dmax: HEK-293T, read-out: IKZF1 HiBit Dmax (%)
# Outline: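 Degradation was measured as loss of luminescence from the HiBiT-IKZF1 tag after 6 h compound treatment, with 0.1% final DMSO, in stable HEK293T Flp-in cells. Values were normalized to DMSO, giving the 50% degradation concentration and the maximal degradation range.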
# Chain of IKZF1 (Q13422 whole entry): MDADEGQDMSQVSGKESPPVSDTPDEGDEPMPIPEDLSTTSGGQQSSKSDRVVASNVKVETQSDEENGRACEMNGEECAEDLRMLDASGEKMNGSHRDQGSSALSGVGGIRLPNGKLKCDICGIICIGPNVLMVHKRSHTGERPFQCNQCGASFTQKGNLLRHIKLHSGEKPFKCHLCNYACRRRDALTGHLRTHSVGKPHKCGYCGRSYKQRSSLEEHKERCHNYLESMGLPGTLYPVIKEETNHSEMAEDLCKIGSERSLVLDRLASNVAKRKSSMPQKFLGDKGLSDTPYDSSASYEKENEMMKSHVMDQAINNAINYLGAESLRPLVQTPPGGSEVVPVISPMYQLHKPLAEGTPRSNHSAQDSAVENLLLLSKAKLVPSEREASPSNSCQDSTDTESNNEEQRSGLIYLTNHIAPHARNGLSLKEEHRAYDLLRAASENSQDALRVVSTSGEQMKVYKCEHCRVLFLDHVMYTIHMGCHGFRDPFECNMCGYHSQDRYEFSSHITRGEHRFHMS
# Chain of IKZF1 (Q96SW2 whole entry): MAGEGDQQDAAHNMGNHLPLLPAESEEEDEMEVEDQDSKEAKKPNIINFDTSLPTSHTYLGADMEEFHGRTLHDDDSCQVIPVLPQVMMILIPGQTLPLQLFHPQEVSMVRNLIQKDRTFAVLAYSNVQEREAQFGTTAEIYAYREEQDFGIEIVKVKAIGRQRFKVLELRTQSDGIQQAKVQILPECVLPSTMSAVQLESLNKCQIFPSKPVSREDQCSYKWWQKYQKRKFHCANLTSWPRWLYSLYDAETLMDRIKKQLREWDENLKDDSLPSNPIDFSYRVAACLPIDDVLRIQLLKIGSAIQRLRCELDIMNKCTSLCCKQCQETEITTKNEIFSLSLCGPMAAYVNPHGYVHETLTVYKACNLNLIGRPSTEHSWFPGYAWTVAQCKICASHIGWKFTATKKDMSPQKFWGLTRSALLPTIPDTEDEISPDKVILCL
# Chain of IKZF1 (Q16531 2-1140 partner): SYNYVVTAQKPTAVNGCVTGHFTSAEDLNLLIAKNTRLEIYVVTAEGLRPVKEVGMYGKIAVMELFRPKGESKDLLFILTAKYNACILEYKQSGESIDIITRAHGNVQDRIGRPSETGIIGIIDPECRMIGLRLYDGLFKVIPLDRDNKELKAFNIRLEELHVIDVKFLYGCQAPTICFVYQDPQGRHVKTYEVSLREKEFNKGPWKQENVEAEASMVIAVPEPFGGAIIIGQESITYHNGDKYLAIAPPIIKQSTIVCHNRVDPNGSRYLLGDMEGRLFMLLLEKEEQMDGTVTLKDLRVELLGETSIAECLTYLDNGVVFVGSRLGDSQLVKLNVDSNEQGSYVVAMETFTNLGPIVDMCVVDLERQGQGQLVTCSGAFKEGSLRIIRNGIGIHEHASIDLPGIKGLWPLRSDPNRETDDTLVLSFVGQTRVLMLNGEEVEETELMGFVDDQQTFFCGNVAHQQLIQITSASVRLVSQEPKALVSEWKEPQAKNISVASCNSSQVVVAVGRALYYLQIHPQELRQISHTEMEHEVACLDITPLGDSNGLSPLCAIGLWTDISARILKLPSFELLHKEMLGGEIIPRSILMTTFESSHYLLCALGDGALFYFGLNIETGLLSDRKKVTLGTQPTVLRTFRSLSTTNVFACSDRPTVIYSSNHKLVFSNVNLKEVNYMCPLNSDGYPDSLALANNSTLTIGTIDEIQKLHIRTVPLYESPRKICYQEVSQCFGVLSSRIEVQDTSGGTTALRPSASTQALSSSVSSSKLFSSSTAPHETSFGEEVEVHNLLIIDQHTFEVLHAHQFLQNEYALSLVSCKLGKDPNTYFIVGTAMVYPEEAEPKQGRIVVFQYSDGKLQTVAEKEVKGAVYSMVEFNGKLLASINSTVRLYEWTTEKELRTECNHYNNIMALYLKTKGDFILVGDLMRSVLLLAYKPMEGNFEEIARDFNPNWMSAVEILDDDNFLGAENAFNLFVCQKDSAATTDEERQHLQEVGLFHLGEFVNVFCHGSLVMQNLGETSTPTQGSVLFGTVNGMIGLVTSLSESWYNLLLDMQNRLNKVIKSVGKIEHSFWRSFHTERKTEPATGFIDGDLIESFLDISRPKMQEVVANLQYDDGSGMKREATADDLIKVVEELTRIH
# T1 sequence (Q9UKS7 whole entry): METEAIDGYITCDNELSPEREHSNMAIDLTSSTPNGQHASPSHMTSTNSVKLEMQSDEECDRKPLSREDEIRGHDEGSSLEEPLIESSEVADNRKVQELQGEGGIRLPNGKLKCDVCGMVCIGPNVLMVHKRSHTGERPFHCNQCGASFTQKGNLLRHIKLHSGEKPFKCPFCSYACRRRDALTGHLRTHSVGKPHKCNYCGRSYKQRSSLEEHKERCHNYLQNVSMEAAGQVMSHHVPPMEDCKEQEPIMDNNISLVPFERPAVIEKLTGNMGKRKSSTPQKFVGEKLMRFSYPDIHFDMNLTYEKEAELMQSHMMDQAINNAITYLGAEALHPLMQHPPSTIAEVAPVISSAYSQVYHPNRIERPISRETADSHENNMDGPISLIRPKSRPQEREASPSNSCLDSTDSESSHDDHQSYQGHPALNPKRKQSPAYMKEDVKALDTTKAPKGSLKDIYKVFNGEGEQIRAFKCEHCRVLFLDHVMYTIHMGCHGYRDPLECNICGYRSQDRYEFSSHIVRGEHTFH
# T1 sequence (Q96SW2 whole entry): as the sequence (Q96SW2 whole entry) above
# T1 sequence (Q16531 2-1140 partner): as the sequence (Q16531 2-1140 partner) above
# Chain of CRBN/DDB1 (Q96SW2 whole entry, species assumed): as the sequence (Q96SW2 whole entry) above
# Chain of CRBN/DDB1 (Q16531 whole entry partner, species assumed): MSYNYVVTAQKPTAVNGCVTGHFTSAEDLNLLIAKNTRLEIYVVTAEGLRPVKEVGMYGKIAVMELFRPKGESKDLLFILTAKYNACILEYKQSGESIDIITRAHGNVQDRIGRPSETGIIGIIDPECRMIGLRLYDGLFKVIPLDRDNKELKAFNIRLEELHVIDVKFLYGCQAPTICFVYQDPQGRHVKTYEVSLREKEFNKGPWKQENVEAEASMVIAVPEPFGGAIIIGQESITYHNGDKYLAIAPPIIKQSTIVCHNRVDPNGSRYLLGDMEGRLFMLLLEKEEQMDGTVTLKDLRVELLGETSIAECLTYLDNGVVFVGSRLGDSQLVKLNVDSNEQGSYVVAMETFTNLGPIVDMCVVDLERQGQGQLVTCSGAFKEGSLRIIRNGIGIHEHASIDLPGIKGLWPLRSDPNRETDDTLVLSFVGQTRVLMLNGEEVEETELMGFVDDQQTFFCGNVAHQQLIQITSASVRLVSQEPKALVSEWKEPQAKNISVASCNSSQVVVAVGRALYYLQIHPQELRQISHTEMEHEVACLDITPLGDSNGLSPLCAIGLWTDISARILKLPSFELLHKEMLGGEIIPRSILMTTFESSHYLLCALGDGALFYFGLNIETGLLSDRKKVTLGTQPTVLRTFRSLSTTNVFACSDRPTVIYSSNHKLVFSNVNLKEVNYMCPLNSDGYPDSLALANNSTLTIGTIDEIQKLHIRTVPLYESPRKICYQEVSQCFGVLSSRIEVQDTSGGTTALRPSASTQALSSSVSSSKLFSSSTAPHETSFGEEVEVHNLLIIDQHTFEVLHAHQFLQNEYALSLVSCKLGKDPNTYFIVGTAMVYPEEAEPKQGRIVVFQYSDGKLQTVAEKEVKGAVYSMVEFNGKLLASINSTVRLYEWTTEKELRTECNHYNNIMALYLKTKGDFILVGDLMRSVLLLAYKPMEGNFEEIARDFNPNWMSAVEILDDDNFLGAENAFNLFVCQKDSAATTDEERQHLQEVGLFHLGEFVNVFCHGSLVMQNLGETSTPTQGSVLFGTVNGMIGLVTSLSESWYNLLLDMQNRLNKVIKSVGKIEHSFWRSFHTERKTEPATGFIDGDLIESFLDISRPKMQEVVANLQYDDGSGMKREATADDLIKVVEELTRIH
SMILES,DC50 [1] [nM],Dmax [1] [%],IC50 [2] [nM],DC50 [3] [nM],Dmax [3] [%],DC50 [4] [nM],Dmax [4] [%]
"CCN(CC)Cc1cc(-c2ccc3c(c2)CN(C2CCC(=O)NC2=O)C3=O)n2cncc2c1 (stereo not drawn) [Example 12, 3-(5-(7-((diethylamino)methyl)imidazo[1,5-a]pyridin-5-yl)-1-oxoisoindolin-2-yl) piperidine-2,6-dione]",100 to 1000,40 to 60,100 to 500,–,–,–,–
"CC(NCc1cc(-c2ccc3c(c2)CN(C2CCC(=O)NC2=O)C3=O)n2cncc2c1)c1cccc(Cl)c1 (stereo not drawn) [Example 20, 3-(5-(7-(((1-(3-chlorophenyl)ethyl)amino)methyl)imidazo[1,5-a]pyridin-5-yl)-1-oxoisoindolin-2-yl) piperidine-2,6-dione]",10 to 100,20 to 40,1000 to 5000,–,–,–,–
"CCNc1n[nH]c2c(CN3CCCC3)cc(-c3ccc4c(c3)CN(C3CCC(=O)NC3=O)C4=O)nc12 (stereo not drawn) [Example 199, 3-(5-(3-(ethylamino)-7-(pyrrolidin-1-ylmethyl)-1H-pyrazolo[4,3-b]pyridin-5-yl)-1-oxoisoindolin-2-yl) piperidine-2,6-dione]",10 to 100,60 to 80,–,1 to 10,> 80,10 to 100,20 to 40
"COC1CCN(Cc2cc(-c3ccc4c(c3F)CN(C3CCC(=O)NC3=O)C4=O)nc3c(NC(C)C)n[nH]c23)CC1 (stereo not drawn) [Example 283, 3-(4-fluoro-5-(3-(isopropylamino)-7-((4-methoxypiperidin-1-yl)methyl)-1H-pyrazolo[4,3-b]pyridin-5-yl)-1-oxoisoindolin-2-yl) piperidine-2,6-dione]",1 to 10,> 80,–,1 to 10,> 80,> 10000,< 20
"O=C1CCC(N2Cc3cc(-c4cc(CN5CCCC5)c5nccc(OC6CC6)c5n4)ccc3C2=O)C(=O)N1 (stereo not drawn) [Example 242, 3-(5-(8-cyclopropoxy-4-(pyrrolidin-1-ylmethyl)-1,5-naphthyridin-2-yl)-1-oxoisoindolin-2-yl) piperidine-2,6-dione]",1 to 10,> 80,–,1 to 10,> 80,> 10000,< 20
"Cn1ccc(-n2ccc3c(CN4CCCC4)cc(-c4ccc5c(c4)CN([C@H]4CCC(=O)NC4=O)C5=O)nc32)n1 [Example 265, (S)-3-(5-(1-(1-methyl-1H-pyrazol-3-yl)-4-(pyrrolidin-1-ylmethyl)-1H-pyrrolo[2,3-b]pyridin-6-yl)-1-oxoisoindolin-2-yl) piperidine-2,6-dione]",1 to 10,60 to 80,–,1 to 10,> 80,> 10000,< 20
"CC1c2cc(-c3cc(CN4CCCC4)c4ccn(C5CS(=O)(=O)C5)c4n3)ccc2C(=O)N1C1CCC(=O)NC1=O (stereo not drawn) [Example 292, 3-(5-(1-(1,1-dioxidothietan-3-yl)-4-(pyrrolidin-1-ylmethyl)-1H-pyrrolo[2,3-b]pyridin-6-yl)-3-methyl-1-oxoisoindolin-2-yl) piperidine-2,6-dione]",1 to 10,> 80,–,1 to 10,> 80,10 to 100,20 to 40
"O=C1CCC(N2Cc3c(ccc(-c4cc(CN5CCC(F)CC5)c5ccn(C6CS(=O)(=O)C6)c5n4)c3F)C2=O)C(=O)N1 (stereo not drawn) [Example 268, 3-(5-(1-(1,1-dioxidothietan-3-yl)-4-((4-fluoropiperidin-1-yl)methyl)-1H-pyrrolo[2,3-b]pyridin-6-yl)-4-fluoro-1-oxoisoindolin-2-yl) piperidine-2,6-dione]",1 to 10,> 80,–,< 1,> 80,10 to 100,40 to 60
"Cc1cn(C2COC2)c2nc(-c3ccc4c(c3)CN(C3CCC(=O)NC3=O)C4=O)cc(CN3CCCC3)c12 (stereo not drawn) [Example 240, 3-(5-(3-methyl-1-(oxetan-3-yl)-4-(pyrrolidin-1-ylmethyl)-1H-pyrrolo[2,3-b]pyridin-6-yl)-1-oxoisoindolin-2-yl) piperidine-2,6-dione]",1 to 10,> 80,–,1 to 10,> 80,> 10000,< 20
"O=C1CCC(N2Cc3cc(-c4cc(CN5CCCC5)c5c(C(F)(F)F)nn(C6COC6)c5n4)ccc3C2=O)C(=O)N1 (stereo not drawn) [Example 245, 3-(5-(1-(oxetan-3-yl)-4-(pyrrolidin-1-ylmethyl)-3-(trifluoromethyl)-1H-pyrazolo[3,4-b]pyridin-6-yl)-1-oxoisoindolin-2-yl) piperidine-2,6-dione]",1 to 10,40 to 60,–,1 to 10,40 to 60,> 10000,< 20
"CC(C)Nc1n[nH]c2c(CN3CCC(F)CC3)cc(-c3ccc4c(c3F)CN(C3CCC(=O)NC3=O)C4=O)nc12 (stereo not drawn) [Example 282, 3-(4-fluoro-5-(7-((4-fluoropiperidin-1-yl)methyl)-3-(isopropylamino)-1H-pyrazolo[4,3-b]pyridin-5-yl)-1-oxoisoindolin-2-yl) piperidine-2,6-dione]",10 to 100,> 80,–,1 to 10,> 80,1000 to 10000,20 to 40
"Cc1cc2c(CN3CCCC3)cc(-c3ccc4c(c3)CN(C3CCC(=O)NC3=O)C4=O)nc2n1C1COC1 (stereo not drawn) [Example 275, 3-(5-(2-methyl-1-(oxetan-3-yl)-4-(pyrrolidin-1-ylmethyl)-1H-pyrrolo[2,3-b]pyridin-6-yl)-1-oxoisoindolin-2-yl) piperidine-2,6-dione]",10 to 100,60 to 80,–,1 to 10,60 to 80,> 10000,< 20
"Cn1ccc2c(CN3CCCC3)c(Cl)c(-c3ccc4c(c3F)CN(C3CCC(=O)NC3=O)C4=O)nc21 (stereo not drawn) [Example 277, 3-(5-(5-chloro-1-methyl-4-(pyrrolidin-1-ylmethyl)-1H-pyrrolo[2,3-b]pyridin-6-yl)-4-fluoro-1-oxoisoindolin-2-yl) piperidine-2,6-dione]",1 to 10,> 80,–,< 1,> 80,> 10000,< 20
"CC1c2cc(-c3cc(CN4CCCC4)c4ccn(C5COC5)c4n3)ccc2C(=O)N1C1CCC(=O)NC1=O (stereo not drawn) [Example 276, 3-(3-methyl-5-(1-(oxetan-3-yl)-4-(pyrrolidin-1-ylmethyl)-1H-pyrrolo[2,3-b]pyridin-6-yl)-1-oxoisoindolin-2-yl) piperidine-2,6-dione]",1 to 10,> 80,–,1 to 10,> 80,> 10000,< 20
"O=C1CCC(N2Cc3cc(-c4cc(CN5CCCC5)c5ccn(C6CC(F)(F)C6)c5n4)ccc3C2=O)C(=O)N1 (stereo not drawn) [Example 274, 3-(5-(1-(3,3-difluorocyclobutyl)-4-(pyrrolidin-1-ylmethyl)-1H-pyrrolo[2,3-b]pyridin-6-yl)-1-oxoisoindolin-2-yl) piperidine-2,6-dione]",1 to 10,60 to 80,–,< 1,> 80,1000 to 10000,20 to 40
"Cn1cnc2c(CN3CCCC3)cc(-c3ccc4c(c3)CN(C3CCC(=O)NC3=O)C4=O)nc21 (stereo not drawn) [Example 180, 3-(5-(3-methyl-7-(pyrrolidin-1-ylmethyl)-3H-imidazo[4,5-b]pyridin-5-yl)-1-oxoisoindolin-2-yl) piperidine-2,6-dione]",10 to 100,> 80,–,1 to 10,> 80,1 to 10,20 to 40
"O=C1CCC(N2Cc3cc(-c4cc(CN5CCCCC56CC6)c5ccn(C6COC6)c5n4)ccc3C2=O)C(=O)N1 (stereo not drawn) [Example 264, 3-(5-(4-((4-azaspiro[2.5]octan-4-yl)methyl)-1-(oxetan-3-yl)-1H-pyrrolo[2,3-b]pyridin-6-yl)-1-oxoisoindolin-2-yl) piperidine-2,6-dione]",10 to 100,40 to 60,–,1 to 10,60 to 80,> 10000,< 20
"CC(C)Nc1n[nH]c2c(CN3CC4(CCOCC4)C3)cc(-c3ccc4c(c3F)CN(C3CCC(=O)NC3=O)C4=O)nc12 (stereo not drawn) [Example 289, 3-(5-(7-((7-oxa-2-azaspiro[3.5]nonan-2-yl)methyl)-3-(isopropylamino)-1H-pyrazolo[4,3-b]pyridin-5-yl)-4-fluoro-1-oxoisoindolin-2-yl) piperidine-2,6-dione]",1 to 10,> 80,–,1 to 10,> 80,10 to 100,40 to 60
